Patent US20230037862A1, “SYNTHETIC AGONISTS OF TLR4 RECEPTOR” (UNIVERSITÀ DEGLO STUDI DI MILANO - BICOCCA, priority 2017, published 2023)

Key:
hTLR4 = target: T1, hTLR4 (Homo sapiens, UniProt O00206+Q9Y6Y9); experiment: HEK-Blue hTLR4 SEAP reporter assay (NF-κB/AP-1 activation); format: cell-based; conditions: HEK-Blue hTLR4 cells, 16-18 hours
T1 construct: host or cells: HEK-Blue hTLR4 (HEK cells)
Protocol: (§1) HEK-Blue™ hTLR4 (FIG. 1A) and HEK-Blue™ Null2 (FIG. 1B) cells were treated with the indicated concentrations of compounds FP11, FP111, and with LPS (100 ng/mL) and incubated for 16-18 hours. Results were normalized to stimulation with LPS alone, and are expressed as mean of percentage ±ES. of at least three independent experiments.
HEK-Blue™ hTLR4 cells were treated with increasing concentrations of compound FP11 and of LPS and incubated for 16-18 hours. Results were normalized to maximum activation of the reporter produced by LPS (FIG. 2A) and to maximum activation of the reporter produced by the compound itself (FIG. 2B). Data were fitted to a sigmoidal four-parameter logistic equation in order to determine IC50 values, and expressed as mean of percentage ±ES of at least three independent experiments.
HEK-Blue™ hTLR4 cells are HEK cells transfected so as to stably express human receptors hTLR4, hMD-2, and hCD14 for endotoxin recognition. In addition, said cells have a reporter gene encoding for a secreted alkaline phosphatase (SEAP) μlaced under the control of specific transcription factors (NF-κB and AP-1) activated by the TLR4 signaling pathway. Therefore, the presence of LPS or of an agonist of TLR4 causes receptor dimerization, activation of the signaling pathway and of transcription factors NF-κB and AP-1, and finally SEAP production and secretion into the culture medium. SEAP levels can be subsequently quantitated by incubating the medium with compound p-nitrophenylphosphate (pNPP) and monitoring with a spectrophotometer the formation of p-nitrophenol chromogenic product at 405 nm.
HEK-Blue™ hTLR4 cells (InvivoGen) were cultured according to manufacturer's instruction. […]
Cells were detached using a cell scraper, counted and seeded in a 96-well multiwell plate at a density of 4×10^4 cells per well. […]
The wells' optical density was determined using a microplate reader set at 405 nm.
The results were normalized with positive control (LPS alone) and expressed as a mean of percentage ±SEM of at least three independent experiments.

HEK-Blue™ Null2 cells = experiment: HEK-Blue Null2 counter-assay (SEAP reporter, no TLR4/MD-2/CD14); format: cell-based; conditions: 16-18 hours
Protocol: as §1
In order to be certain that the agonist effect of compound FP11 be due to the interaction with the TLR4 receptor, the compounds were tested on the HEK-Blue™ Null2 cell line. Said line expresses the same reporter gene of HEK-Blue™ hTLR4 cells (SEAP), but has none of the receptors involved in endotoxin recognition (TLR4, MD-2, CD14).

T1 sequence (O00206 24-839): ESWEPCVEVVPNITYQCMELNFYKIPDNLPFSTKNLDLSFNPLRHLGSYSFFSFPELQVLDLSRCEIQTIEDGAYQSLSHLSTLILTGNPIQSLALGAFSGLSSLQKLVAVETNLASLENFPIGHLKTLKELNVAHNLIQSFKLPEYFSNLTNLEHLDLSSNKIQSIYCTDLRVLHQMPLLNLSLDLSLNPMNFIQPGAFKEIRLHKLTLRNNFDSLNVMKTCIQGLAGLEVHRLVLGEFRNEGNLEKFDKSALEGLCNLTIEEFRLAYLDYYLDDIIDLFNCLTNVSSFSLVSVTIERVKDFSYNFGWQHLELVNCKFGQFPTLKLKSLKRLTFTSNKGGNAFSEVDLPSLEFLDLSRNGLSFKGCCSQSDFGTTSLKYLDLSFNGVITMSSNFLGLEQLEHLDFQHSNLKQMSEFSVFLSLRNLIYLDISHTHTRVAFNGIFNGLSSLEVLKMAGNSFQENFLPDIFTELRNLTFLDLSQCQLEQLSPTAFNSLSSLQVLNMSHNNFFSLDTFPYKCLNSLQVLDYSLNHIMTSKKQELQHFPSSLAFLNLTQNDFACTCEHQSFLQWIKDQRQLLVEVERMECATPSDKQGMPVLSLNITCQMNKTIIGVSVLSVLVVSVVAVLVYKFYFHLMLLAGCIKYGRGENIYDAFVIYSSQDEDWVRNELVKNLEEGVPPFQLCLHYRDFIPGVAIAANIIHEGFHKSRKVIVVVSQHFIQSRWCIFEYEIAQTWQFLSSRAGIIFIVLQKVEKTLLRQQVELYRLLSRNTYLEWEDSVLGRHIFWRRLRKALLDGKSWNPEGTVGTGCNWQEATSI
T1 sequence (Q9Y6Y9 17-160 limits assumed): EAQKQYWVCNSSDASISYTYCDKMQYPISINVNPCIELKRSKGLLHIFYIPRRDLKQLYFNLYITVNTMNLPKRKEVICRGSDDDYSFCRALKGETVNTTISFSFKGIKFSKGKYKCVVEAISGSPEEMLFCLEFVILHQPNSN

concentrations at which activation of NF-κB and AP-1 is induced (hTLR4; SEAP reporter): > 5 µM
EC50 (hTLR4; dose-response curve): 12.3 µM
Structure (SMILES): CCCCCCCCCCCCCC(=O)NC1C(OC(=O)CCCCCCCCCCCCC)[C@H](OC(=O)CCCCCCCCCCCCC)C(CO)O[C@H]1OP(=O)(O)O (stereo partly drawn) [FP11, 1-O-Phosphoryl-2-deoxy-4-O-tetradecanoyl 3-O-tetradecanoyl-2-tetradecanoylamino-α-D-glucopiranoside]
activation of transcription factors NF-κB and AP-1 in cells without TLR4, MD-2, CD14 (HEK-Blue™ Null2 cells): unable to activate transcription factors NF-κB and AP-1
